Measured values from ChEMBL document CHEMBL1201862, “PubChem BioAssay data set” (2004).
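Five compound concentrations were applied to cells in 96-well plates for 48 hours; endpoints were derived by simple linear interpolation of the resulting dose-response curve. GI50 = concentration required for 50% inhibition of growth.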 Calls of active or inactive are those of the source. No stated cut-off is given here; in the data, active = GI50 up to about 1.1 µM and inactive = higher.

Columns and labels:
Test in all cases: DTP human tumour cell line panel, 48 h
MDA-N = tested on: MDA-N
TK-10 = tested on: TK-10
NCI/ADR-RES = tested on: NCI/ADR-RES
SF-539 = tested on: SF-539
UACC-62 = tested on: UACC-62
HOP-92 = tested on: HOP-92
OVCAR-4 = tested on: OVCAR-4
CAKI-1 = tested on: CAKI-1
NCI-H460 = tested on: NCI-H460
SR = tested on: SR
HL-60 = tested on: HL-60
SK-OV-3 = tested on: SK-OV-3
RPMI-8226 = tested on: RPMI-8226
DU-145 = tested on: DU-145
K562 = tested on: K562
SW-620 = tested on: SW-620
Hs-578T = tested on: Hs-578T
MDA-MB-435 = tested on: MDA-MB-435
SF-295 = tested on: SF-295
SK-MEL-2 = tested on: SK-MEL-2

Compound: O=C(O)c1c2c(cc3c1CC1(Cc4ccccc4C1)C3)CCC2
- GI50 (MDA-N): > 100 µM (inactive)
- GI50 (TK-10): > 100 µM (inactive)
- GI50 (NCI/ADR-RES): 35.4 µM (inactive)
- GI50 (SF-539): > 100 µM (inactive)
- GI50 (UACC-62): > 100 µM (inactive)
- GI50 (HOP-92): 14.9 µM (inactive)
- GI50 (OVCAR-4): 58.2 µM (inactive)
- GI50 (CAKI-1): 53.2 µM (inactive)
- GI50 (NCI-H460): 25.9 µM (inactive)
- GI50 (SR): 52.8 µM (inactive)
- GI50 (HL-60): 41.4 µM (inactive)
- GI50 (SK-OV-3): > 100 µM (inactive)
- GI50 (RPMI-8226): 33.9 µM (inactive)
- GI50 (DU-145): 66.5 µM (inactive)
- GI50 (K562): 59.3 µM (inactive)
- GI50 (SW-620): > 100 µM (inactive)
- GI50 (Hs-578T): 63.8 µM (inactive)
- GI50 (MDA-MB-435): > 100 µM (inactive)
- GI50 (SF-295): > 100 µM (inactive)

Compound: CCOP(=O)(OCC)/C(C#N)=C/c1nccn1C
- GI50 (MDA-N): > 100 µM (inactive)
- GI50 (TK-10): > 100 µM (inactive)
- GI50 (NCI/ADR-RES): > 100 µM (inactive)
- GI50 (SF-539): > 100 µM (inactive)
- GI50 (HOP-92): 63 µM (inactive)
- GI50 (NCI-H460): > 100 µM (inactive)
- GI50 (SR): > 100 µM (inactive)
- GI50 (HL-60): > 100 µM (inactive)
- GI50 (RPMI-8226): > 100 µM (inactive)
- GI50 (DU-145): > 100 µM (inactive)
- GI50 (K562): > 100 µM (inactive)
- GI50 (SK-MEL-2): > 100 µM (inactive)
- GI50 (SW-620): > 100 µM (inactive)
- GI50 (Hs-578T): > 100 µM (inactive)
- GI50 (MDA-MB-435): > 100 µM (inactive)
- GI50 (SF-295): > 100 µM (inactive)

Compound: CCOC(=O)Oc1cc2c(c(OC)c1OC)-c1ccc(SC)c(=O)cc1C(NC(=O)C(F)(F)F)CC2 (stereo unspecified)
- GI50 (MDA-N): < 0.001 µM (active)
- GI50 (TK-10): > 10 µM (inactive)
- GI50 (NCI/ADR-RES): 0.0102 µM (active)
- GI50 (UACC-62): 0.00108 µM (active)
- GI50 (HOP-92): 0.00604 µM (active)
- GI50 (OVCAR-4): 2.01 µM (inactive)
- GI50 (CAKI-1): 0.0147 µM (active)
- GI50 (NCI-H460): 0.00199 µM (active)
- GI50 (SR): 0.00128 µM (active)
- GI50 (HL-60): < 0.001 µM (active)
- GI50 (SK-OV-3): < 0.001 µM (active)
- GI50 (RPMI-8226): < 0.001 µM (active)
- GI50 (DU-145): 0.00258 µM (active)
- GI50 (K562): < 0.001 µM (active)
- GI50 (SW-620): < 0.001 µM (active)
- GI50 (Hs-578T): < 0.001 µM (active)
- GI50 (MDA-MB-435): < 0.001 µM (active)
- GI50 (SF-295): < 0.001 µM (active)

Compound: CN(C)/C=N/CCN1CCOCC1
- GI50 (MDA-N): > 100 µM (inactive)
- GI50 (TK-10): > 100 µM (inactive)
- GI50 (NCI/ADR-RES): > 100 µM (inactive)
- GI50 (SF-539): > 100 µM (inactive)
- GI50 (UACC-62): > 100 µM (inactive)
- GI50 (HOP-92): > 100 µM (inactive)
- GI50 (OVCAR-4): > 100 µM (inactive)
- GI50 (SR): > 100 µM (inactive)
- GI50 (HL-60): > 100 µM (inactive)
- GI50 (SK-OV-3): > 100 µM (inactive)
- GI50 (RPMI-8226): > 100 µM (inactive)
- GI50 (DU-145): > 100 µM (inactive)
- GI50 (K562): > 100 µM (inactive)
- GI50 (SK-MEL-2): > 100 µM (inactive)
- GI50 (Hs-578T): > 100 µM (inactive)
- GI50 (MDA-MB-435): > 100 µM (inactive)
- GI50 (SF-295): > 100 µM (inactive)

Compound: COc1cc(/C=N\NC(=O)C[N+](C)(C)C)cc(OC)c1OC
- GI50 (MDA-N): > 10 µM (inactive)
- GI50 (TK-10): > 10 µM (inactive)
- GI50 (NCI/ADR-RES): > 10 µM (inactive)
- GI50 (SF-539): > 10 µM (inactive)
- GI50 (UACC-62): > 10 µM (inactive)
- GI50 (HOP-92): > 10 µM (inactive)
- GI50 (OVCAR-4): > 10 µM (inactive)
- GI50 (CAKI-1): > 10 µM (inactive)
- GI50 (SR): > 10 µM (inactive)
- GI50 (HL-60): > 10 µM (inactive)
- GI50 (SK-OV-3): > 10 µM (inactive)
- GI50 (RPMI-8226): > 10 µM (inactive)
- GI50 (DU-145): > 10 µM (inactive)
- GI50 (K562): > 10 µM (inactive)
- GI50 (SW-620): > 10 µM (inactive)
- GI50 (Hs-578T): > 10 µM (inactive)
- GI50 (MDA-MB-435): > 10 µM (inactive)
- GI50 (SF-295): > 10 µM (inactive)

Compound: CC1=C/C(=N\OCC(=O)O)CC(c2ccc(C(C)C)cc2)C1 (stereo unspecified)
- GI50 (MDA-N): 34.5 µM (inactive)
- GI50 (NCI/ADR-RES): 21.1 µM (inactive)
- GI50 (SF-539): 93.1 µM (inactive)
- GI50 (UACC-62): 33.7 µM (inactive)
- GI50 (HOP-92): 29.5 µM (inactive)
- GI50 (CAKI-1): > 100 µM (inactive)
- GI50 (NCI-H460): 42.2 µM (inactive)
- GI50 (SR): 28.1 µM (inactive)
- GI50 (HL-60): 26.5 µM (inactive)
- GI50 (SK-OV-3): > 100 µM (inactive)
- GI50 (RPMI-8226): 23.2 µM (inactive)
- GI50 (DU-145): > 100 µM (inactive)
- GI50 (K562): 32.3 µM (inactive)
- GI50 (SK-MEL-2): 99.1 µM (inactive)
- GI50 (SW-620): 34.3 µM (inactive)
- GI50 (Hs-578T): > 100 µM (inactive)
- GI50 (MDA-MB-435): 36.8 µM (inactive)
- GI50 (SF-295): 39.8 µM (inactive)
